Data taken from patent publication US20110098304A1, “Small molecule inhibitors of PARP activity” (priority 2009, published 2011).

What follows are molecules tested against T1, human PARD-1 (Poly (ADP-Ribose) Polymerase-1) (Homo sapiens, UniProt P09874) (assay: Poly (ADP-Ribose) Polymerase-1 in vitro enzyme assay (Universal Colorimetric Assay Kit, Trevigen)). Conditions: letter codes; read-out: extent of inhibition of PARP activity (IC50, micromolar).
T1 construct: purchased Trevigen Inc., Gaithersburg, Md
T1 sequence (P09874 whole entry): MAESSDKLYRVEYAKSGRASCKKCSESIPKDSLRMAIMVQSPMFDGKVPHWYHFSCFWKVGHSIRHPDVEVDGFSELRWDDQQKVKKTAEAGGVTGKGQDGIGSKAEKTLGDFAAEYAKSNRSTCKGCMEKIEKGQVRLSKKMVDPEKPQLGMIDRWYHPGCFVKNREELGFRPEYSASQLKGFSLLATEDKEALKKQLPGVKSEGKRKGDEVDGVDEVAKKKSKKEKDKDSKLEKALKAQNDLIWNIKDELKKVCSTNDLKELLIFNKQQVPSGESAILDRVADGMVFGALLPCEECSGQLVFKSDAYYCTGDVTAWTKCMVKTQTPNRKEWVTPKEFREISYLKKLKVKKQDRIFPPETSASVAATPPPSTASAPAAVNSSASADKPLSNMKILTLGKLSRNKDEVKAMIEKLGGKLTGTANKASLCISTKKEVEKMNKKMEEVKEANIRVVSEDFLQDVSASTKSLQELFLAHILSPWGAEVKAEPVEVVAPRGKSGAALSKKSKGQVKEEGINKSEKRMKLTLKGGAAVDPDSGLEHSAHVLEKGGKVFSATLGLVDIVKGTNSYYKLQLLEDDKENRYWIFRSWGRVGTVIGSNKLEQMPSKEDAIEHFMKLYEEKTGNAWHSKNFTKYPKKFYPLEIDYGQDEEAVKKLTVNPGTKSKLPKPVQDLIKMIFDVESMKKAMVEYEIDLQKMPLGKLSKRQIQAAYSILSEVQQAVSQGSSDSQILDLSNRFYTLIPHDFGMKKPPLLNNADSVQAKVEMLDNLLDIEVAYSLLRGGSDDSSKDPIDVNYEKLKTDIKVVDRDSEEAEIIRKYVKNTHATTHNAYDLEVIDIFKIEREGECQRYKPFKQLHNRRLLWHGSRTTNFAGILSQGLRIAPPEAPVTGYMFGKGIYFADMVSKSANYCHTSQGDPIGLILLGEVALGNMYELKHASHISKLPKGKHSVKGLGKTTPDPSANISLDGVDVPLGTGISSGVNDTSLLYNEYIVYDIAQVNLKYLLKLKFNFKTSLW
Assay type: biochemical
Procedure: Poly (ADP-Ribose) Polymerase-1 (PARD-1) In Vitro Enzyme Assay: Compounds were screened for inhibitory activity against human PARD-1 in vitro using the Universal Colorimetric PARD Assay Kit (Trevigen Inc., Gaithersburg, Md.) as directed by the supplier. Compounds are assayed in duplicate in 0.5% DMSO final concentration, negative control is no enzyme, while positive control is DMSO vehicle alone. IC50 determinations are made using Microsoft Excel. For all cell assays, compounds are added to cells in 5% DMSO/PBS for a final concentration of 0.5% DMSO.

Row | SMILES | IC50
1 | Nc1cc(-c2n[nH]c(=O)c3ccccc23)ccc1N1CCN(CC(=O)O)CC1 [2-(4-(2-amino-4-(4-oxo-3,4-dihydrophthalazin-1-yl)phenyl)piperazin-1-yl)acetic acid] | 0.001 to 0.1 µM
2 | N#CCCN1CCN(c2ccc(-c3n[nH]c(=O)c4ccccc34)cc2N)CC1 [3-(4-(2-amino-4-(4-oxo-3,4-dihydrophthalazin-1-yl)phenyl)piperazin-1-yl)propanenitrile] | 0.001 to 0.1 µM
3 | Nc1cc(-c2n[nH]c(=O)c3ccccc23)ccc1N1CCN(CCC(=O)O)CC1 [3-(4-(2-amino-4-(4-oxo-3,4-dihydrophthalazin-1-yl)phenyl)piperazin-1-yl)propanoic acid] | 0.1 to 1 µM
4 | CN(C)CCN1CCN(c2ccc(-c3n[nH]c(=O)c4ccccc34)cc2N)CC1 [4-(3-amino-4-(4-(2-(dimethylamino)ethyl)piperazin-1-yl)phenyl)phthalazin-1(2H)-one] | 0.1 to 1 µM
5 | Nc1ccccc1N1CCN(c2ccc(-c3n[nH]c(=O)c4ccccc34)cc2N)CC1 [4-(3-amino-4-(4-(2-aminophenyl)piperazin-1-yl)phenyl)phthalazin-1(2H)-one] | 1 to 5 µM
6 | Nc1cc(-c2n[nH]c(=O)c3ccccc23)ccc1N1CCN(CCO)CC1 [4-(3-amino-4-(4-(2-hydroxyethyl)piperazin-1-yl)phenyl)phthalazin-1(2H)-one] | 0.001 to 0.1 µM
7 | COCCN1CCN(c2ccc(-c3n[nH]c(=O)c4ccccc34)cc2N)CC1 [4-(3-amino-4-(4-(2-methoxyethyl)piperazin-1-yl)phenyl)phthalazin-1(2H)-one] | 0.1 to 1 µM
8 | Nc1cc(-c2n[nH]c(=O)c3ccccc23)ccc1N1CCN(CCCO)CC1 [4-(3-amino-4-(4-(3-hydroxypropyl)piperazin-1-yl)phenyl)phthalazin-1(2H)-one] | 0.001 to 0.1 µM
9 | Nc1cc(-c2n[nH]c(=O)c3ccccc23)ccc1N1CCN(CC2CCCO2)CC1 (stereo not drawn) [4-(3-amino-4-(4-((tetrahydrofuran-2-yl)methyl)piperazin-1-yl)phenyl)phthalazin-1(2H)-one] | 0.1 to 1 µM
10 | Nc1cc(-c2n[nH]c(=O)c3ccccc23)ccc1N1CCN(Cc2cccnc2)CC1 [4-(3-amino-4-(4-(pyridin-3-ylmethyl)piperazin-1-yl)phenyl)phthalazin-1(2H)-one] | 0.001 to 0.1 µM
11 | Nc1cc(-c2n[nH]c(=O)c3ccccc23)ccc1N1CCN(c2ccncc2)CC1 [4-(3-amino-4-(4-(pyridin-4-yl)piperazin-1-yl)phenyl)phthalazin-1(2H)-one] | 0.001 to 0.1 µM
12 | Nc1cc(-c2n[nH]c(=O)c3ccccc23)ccc1N1CCN(Cc2ccncc2)CC1 [4-(3-amino-4-(4-(pyridin-4-ylmethyl)piperazin-1-yl)phenyl)phthalazin-1(2H)-one] | 0.001 to 0.1 µM
13 | Nc1cc(-c2n[nH]c(=O)c3ccccc23)ccc1N1CCN(Cc2ccccc2)CC1 [4-(3-amino-4-(4-benzylpiperazin-1-yl)phenyl)phthalazin-1(2H)-one] | 0.1 to 1 µM
14 | CCN1CCN(c2ccc(-c3n[nH]c(=O)c4ccccc34)cc2N)CC1 [4-(3-amino-4-(4-ethylpiperazin-1-yl)phenyl)phthalazin-1(2H)-one] | 0.001 to 0.1 µM
15 | Nc1cc(-c2n[nH]c(=O)c3ccccc23)ccc1N1CCN(C(=O)c2ccncc2)CC1 [4-(3-amino-4-(4-isonicotinoylpiperazin-1-yl)phenyl)phthalazin-1(2H)-one] | 0.1 to 1 µM
16 | CC(C)N1CCN(c2ccc(-c3n[nH]c(=O)c4ccccc34)cc2N)CC1 [4-(3-amino-4-(4-isopropylpiperazin-1-yl)phenyl)phthalazin-1(2H)-one] | 0.001 to 0.1 µM
17 | CC(C)(C)N1CCN(c2ccc(-c3n[nH]c(=O)c4ccccc34)cc2N)CC1 [4-(3-amino-4-(4-tert-butylpiperazin-1-yl)phenyl)phthalazin-1(2H)-one] | 0.001 to 0.1 µM
18 | Nc1cc(-c2n[nH]c(=O)c3ccccc23)ccc1N1CCNCC1 [4-(3-amino-4-(piperazin-1-yl)phenyl)phthalazin-1(2H)-one] | 0.001 to 0.1 µM

Other lines, results leading:

Row | IC50 | SMILES
19 | 0.1 to 1 µM | CN1CCN(c2ccc(-c3n[nH]c(=O)c4ccccc34)cc2NC(=O)Nc2ccc(F)cc2)CC1 [1-(4-fluorophenyl)-3-(2-(4-methylpiperazin-1-yl)-5-(4-oxo-3,4-dihydrophthalazin-1-yl)phenyl)urea]
20 | 0.1 to 1 µM | CN1CCN(c2ccc(-c3n[nH]c(=O)c4ccccc34)cc2NC(=O)NC2CCCCC2)CC1 [1-cyclohexyl-3-(2-(4-methylpiperazin-1-yl)-5-(4-oxo-3,4-dihydrophthalazin-1-yl)phenyl)urea]
21 | 0.1 to 1 µM | CN1CCN(c2ccc(-c3n[nH]c(=O)c4ccccc34)cc2NC(=O)NC2CCCC2)CC1 [1-cyclopentyl-3-(2-(4-methylpiperazin-1-yl)-5-(4-oxo-3,4-dihydrophthalazin-1-yl)phenyl)urea]
22 | 1 to 5 µM | CCNC(=O)Nc1cc(-c2n[nH]c(=O)c3ccccc23)ccc1N1CCN(C)CC1 [1-ethyl-3-(2-(4-methylpiperazin-1-yl)-5-(4-oxo-3,4-dihydrophthalazin-1-yl)phenyl)urea]
23 | 0.1 to 1 µM | CNC(=O)Nc1cc(-c2n[nH]c(=O)c3ccccc23)ccc1N1CCN(C)CC1 [1-methyl-3-(2-(4-methylpiperazin-1-yl)-5-(4-oxo-3,4-dihydrophthalazin-1-yl)phenyl)urea]
24 | 0.1 to 1 µM | CN1CCN(c2ccc(-c3n[nH]c(=O)c4ccccc34)cc2NC(=O)NC(C)(C)C)CC1 [1-tert-butyl-3-(2-(4-methylpiperazin-1-yl)-5-(4-oxo-3,4-dihydrophthalazin-1-yl)phenyl)urea]
25 | 0.1 to 1 µM | CN1CCN(c2ccc(-c3n[nH]c(=O)c4ccccc34)cc2NC(=O)CCl)CC1 [2-chloro-N-(2-(4-methylpiperazin-1-yl)-5-(4-oxo-3,4-dihydrophthalazin-1-yl)phenyl)acetamide]
26 | 0.1 to 1 µM | CN1CCN(c2ccc(-c3n[nH]c(=O)c4ccccc34)cc2NC(=O)c2cccc(C#N)c2)CC1 [3-cyano-N-(2-(4-methylpiperazin-1-yl)-5-(4-oxo-3,4-dihydrophthalazin-1-yl)phenyl)benzamide]
27 | 0.001 to 0.1 µM | CN1CCC(N2CCN(c3ccc(-c4n[nH]c(=O)c5ccccc45)cc3N)CC2)CC1 [4-(3-amino-4-(4-(1-methylpiperidin-4-yl)piperazin-1-yl)phenyl)phthalazin-1(2H)-one]
28 | 0.001 to 0.1 µM | Nc1cc(-c2n[nH]c(=O)c3ccccc23)ccc1N1CCN(CC2CCCCC2)CC1 [4-(3-amino-4-(4-(cyclohexylmethyl)piperazin-1-yl)phenyl)phthalazin-1(2H)-one]
29 | 0.001 to 0.1 µM | Nc1cc(-c2n[nH]c(=O)c3ccccc23)ccc1N1CCN(CC2CC2)CC1 [4-(3-amino-4-(4-(cyclopropylmethyl)piperazin-1-yl)phenyl)phthalazin-1(2H)-one]
30 | 0.001 to 0.1 µM | Nc1cc(-c2n[nH]c(=O)c3ccccc23)ccc1N1CCN(C2CCCC2)CC1 [4-(3-amino-4-(4-cyclopentylpiperazin-1-yl)phenyl)phthalazin-1(2H)-one]
31 | 0.001 to 0.1 µM | Nc1cc(-c2n[nH]c(=O)c3ccccc23)ccc1N1CCN(C2CC2)CC1 [4-(3-amino-4-(4-cyclopropylpiperazin-1-yl)phenyl)phthalazin-1(2H)-one]
32 | 0.001 to 0.1 µM | CN1CCN(c2ccc(-c3n[nH]c(=O)c4ccccc34)cc2N)CC1 [4-(3-amino-4-(4-methylpiperazin-1-yl)phenyl)phthalazin-1(2H)-one]
33 | 1 to 5 µM | CC(=O)Nc1cc(-c2n[nH]c(=O)c3ccccc23)ccc1N1CCN(C(C)=O)CC1 [N-(2-(4-acetylpiperazin-1-yl)-5-(4-oxo-3,4-dihydrophthalazin-1-yl)phenyl)acetamide]
34 | 1 to 5 µM | CCN1CCN(c2ccc(-c3n[nH]c(=O)c4ccccc34)cc2NC(C)=O)CC1 [N-(2-(4-ethylpiperazin-1-yl)-5-(4-oxo-3,4-dihydrophthalazin-1-yl)phenyl)acetamide]
35 | > 5 µM | CCN1CCN(c2ccc(-c3n[nH]c(=O)c4ccccc34)cc2NC(=O)C(C)(C)C)CC1 [N-(2-(4-ethylpiperazin-1-yl)-5-(4-oxo-3,4-dihydrophthalazin-1-yl)phenyl)pivalamide]
36 | 1 to 5 µM | CC(=O)Nc1cc(-c2n[nH]c(=O)c3ccccc23)ccc1N1CCN(C(C)C)CC1 [N-(2-(4-isopropylpiperazin-1-yl)-5-(4-oxo-3,4-dihydrophthalazin-1-yl)phenyl)acetamide]
37 | 1 to 5 µM | CN1CCN(c2ccc(-c3n[nH]c(=O)c4ccccc34)cc2NC(=O)Cc2cccs2)CC1 [N-(2-(4-methylpiperazin-1-yl)-5-(4-oxo-3,4-dihydrophthalazin-1-yl)phenyl)-2-(thiophen-2-yl)acetamide]
38 | 0.1 to 1 µM | CC(=O)Nc1cc(-c2n[nH]c(=O)c3ccccc23)ccc1N1CCN(C)CC1 [N-(2-(4-methylpiperazin-1-yl)-5-(4-oxo-3,4-dihydrophthalazin-1-yl)phenyl)acetamide]
39 | 0.1 to 1 µM | CN1CCN(c2ccc(-c3n[nH]c(=O)c4ccccc34)cc2NC(=O)c2ccc3c(c2)OCO3)CC1 [N-(2-(4-methylpiperazin-1-yl)-5-(4-oxo-3,4-dihydrophthalazin-1-yl)phenyl)benzo[d][1,3]dioxole-5-carboxamide]
40 | 0.1 to 1 µM | CN1CCN(c2ccc(-c3n[nH]c(=O)c4ccccc34)cc2NC(=O)C2CCCCC2)CC1 [N-(2-(4-methylpiperazin-1-yl)-5-(4-oxo-3,4-dihydrophthalazin-1-yl)phenyl)cyclohexanecarboxamide]
41 | 0.1 to 1 µM | CN1CCN(c2ccc(-c3n[nH]c(=O)c4ccccc34)cc2NC(=O)c2ccco2)CC1 [N-(2-(4-methylpiperazin-1-yl)-5-(4-oxo-3,4-dihydrophthalazin-1-yl)phenyl)furan-2-carboxamide]
42 | 1 to 5 µM | CC(C)C(=O)Nc1cc(-c2n[nH]c(=O)c3ccccc23)ccc1N1CCN(C)CC1 [N-(2-(4-methylpiperazin-1-yl)-5-(4-oxo-3,4-dihydrophthalazin-1-yl)phenyl)isobutyramide]
